Data reported in PubChem BioAssay (NCI).
“And” between values parts separate entries of the source, which are not always exact repeats. Equal entries are not always repeated.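 These data come from cells grown in 96-well plates and exposed to compound for 48 hours at five concentrations. The concentration for 50% growth inhibition is given as GI50. TGI denotes the concentration required for complete inhibition of growth.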

What was measured:
Assay in all cases: NCI tumour cell line growth inhibition, 48 h
ACHN renal = test system: ACHN renal
IGROV1 ovarian = test system: IGROV1 ovarian
SW-620 colon = test system: SW-620 colon
COLO 205 colon = test system: COLO 205 colon
HCC-2998 colon = test system: HCC-2998 colon
A498 renal = test system: A498 renal
OVCAR-5 ovarian = test system: OVCAR-5 ovarian
BT-549 breast = test system: BT-549 breast
PC-3 prostate = test system: PC-3 prostate
NCI/ADR-RES ovarian = test system: NCI/ADR-RES ovarian

Cn1cc2c(n1)c(N/N=C/c1ccccc1)nn1nnnc21
TGI (ACHN renal): > 100 µM
TGI (IGROV1 ovarian): > 100 µM
TGI (SW-620 colon): > 100 µM
TGI (COLO 205 colon): > 100 µM
TGI (HCC-2998 colon): > 100 µM
TGI (A498 renal): > 100 µM

C=CCNC1=C(C(=O)OCC)C(=O)CO1
TGI (ACHN renal): > 100 µM
TGI (IGROV1 ovarian): > 100 µM
TGI (OVCAR-5 ovarian): > 100 µM
TGI (SW-620 colon): > 100 µM
TGI (HCC-2998 colon): > 100 µM
TGI (A498 renal): > 100 µM

C=C(CN1CCN(c2cccc(C(F)(F)F)c2)CC1)c1ccc(C(=O)Nc2ccccc2N)cc1
GI50 (ACHN renal): 0.92 µM
TGI (ACHN renal): 11.1 µM
GI50 (IGROV1 ovarian): 14.2 µM
TGI (IGROV1 ovarian): > 50 µM
GI50 (BT-549 breast): 0.332 µM
TGI (BT-549 breast): 5.06 µM
GI50 (OVCAR-5 ovarian): 6.63 µM
TGI (OVCAR-5 ovarian): 26.4 µM
GI50 (SW-620 colon): 1.28 µM
TGI (SW-620 colon): 15.9 µM
GI50 (COLO 205 colon): 3.45 µM
TGI (COLO 205 colon): > 23 µM
GI50 (PC-3 prostate): 0.615 µM
TGI (PC-3 prostate): > 50 µM
GI50 (NCI/ADR-RES ovarian): 2.34 µM
TGI (NCI/ADR-RES ovarian): > 50 µM
GI50 (A498 renal): 0.005 µM
TGI (A498 renal): 5.18 µM

CC[C@@]1(O)C(=O)OCc2c1cc1n(c2=O)Cc2cc3cc(OC)ccc3nc2-1
TGI (IGROV1 ovarian): 0.945 µM
GI50 (OVCAR-5 ovarian): 0.643 µM
TGI (OVCAR-5 ovarian): 0.562 µM
GI50 (SW-620 colon): 0.0391 µM
TGI (SW-620 colon): 4.79 µM
GI50 (COLO 205 colon): 0.419 µM and 0.143 µM
GI50 (NCI/ADR-RES ovarian): 0.0204 µM
TGI (NCI/ADR-RES ovarian): 0.169 µM
GI50 (HCC-2998 colon): 0.147 µM and 0.0656 µM
TGI (HCC-2998 colon): 0.29 µM and 1.09 µM and 0.388 µM
GI50 (A498 renal): 0.0272 µM
TGI (A498 renal): 1.8 µM and 0.307 µM

O=S(=O)(NC(=S)Nc1ccccc1)c1ccc(N2N=C3c4ccccc4CC3C2c2cccs2)cc1 (stereo unspecified)
GI50 (ACHN renal): 26.4 µM
TGI (ACHN renal): 67.7 µM
GI50 (IGROV1 ovarian): 65.3 µM
TGI (IGROV1 ovarian): > 100 µM
GI50 (BT-549 breast): 24.6 µM
TGI (BT-549 breast): 66.2 µM
GI50 (OVCAR-5 ovarian): 17.9 µM
TGI (OVCAR-5 ovarian): 41.1 µM
GI50 (SW-620 colon): 30 µM
TGI (SW-620 colon): > 100 µM
GI50 (COLO 205 colon): 41.9 µM
TGI (COLO 205 colon): > 100 µM
GI50 (PC-3 prostate): 22.9 µM
TGI (PC-3 prostate): 54.4 µM
GI50 (NCI/ADR-RES ovarian): 19.3 µM
TGI (NCI/ADR-RES ovarian): 44.5 µM
GI50 (HCC-2998 colon): 13.9 µM
TGI (HCC-2998 colon): 30.8 µM

CC1C=C(OC(=O)c2ccccc2)C(=O)C(n2cc(F)c(=O)n(C(=O)c3ccccc3)c2=O)O1 (stereo unspecified)
TGI (ACHN renal): > 100 µM
TGI (IGROV1 ovarian): > 100 µM
TGI (SW-620 colon): 96.6 µM
TGI (COLO 205 colon): 62.1 µM

C=C(CNCCc1ccc(O)cc1)[C@@H]1CC[C@]2(CO)CC[C@]3(C)[C@H](CC[C@@H]4[C@@]5(C)CCC(=O)C(C)(C)[C@@H]5CC[C@]43C)[C@@H]12
GI50 (ACHN renal): 1.61 µM
TGI (ACHN renal): 2.96 µM
GI50 (IGROV1 ovarian): 1.68 µM
TGI (IGROV1 ovarian): 3.3 µM
GI50 (BT-549 breast): 1.71 µM
TGI (BT-549 breast): 3.29 µM
GI50 (OVCAR-5 ovarian): 1.59 µM
TGI (OVCAR-5 ovarian): 3 µM
GI50 (SW-620 colon): 1.77 µM
TGI (SW-620 colon): 3.76 µM
GI50 (COLO 205 colon): 1.73 µM
TGI (COLO 205 colon): 3.32 µM
GI50 (PC-3 prostate): 1.32 µM
TGI (PC-3 prostate): 2.69 µM
GI50 (HCC-2998 colon): 1.64 µM
TGI (HCC-2998 colon): 3.06 µM
GI50 (A498 renal): 1.38 µM
TGI (A498 renal): 2.77 µM

O=C([O-])c1ccc2c(c1)-c1nc-2nc2[n-]c(nc3nc(nc4[n-]c(n1)c1ccc(C(=O)[O-])cc41)-c1cc(C(=O)[O-])ccc1-3)c1ccc(C(=O)[O-])cc21.[Fe+2]
GI50 (ACHN renal): > 50 µM
TGI (ACHN renal): > 50 µM
GI50 (IGROV1 ovarian): > 50 µM
TGI (IGROV1 ovarian): > 50 µM
GI50 (OVCAR-5 ovarian): > 50 µM
TGI (OVCAR-5 ovarian): > 50 µM
GI50 (SW-620 colon): > 21.7 µM
TGI (SW-620 colon): > 31.5 µM
GI50 (COLO 205 colon): > 22.2 µM
TGI (COLO 205 colon): > 31.2 µM
GI50 (HCC-2998 colon): > 50 µM
TGI (HCC-2998 colon): > 50 µM
GI50 (A498 renal): > 50 µM
TGI (A498 renal): > 50 µM
